# Measurements taken from US20260242419A1, “A CYCLIC PEPTIDE FOR TRAPPING INTERLEUKIN-1 BETA” (Merck Sharp & Dohme LLC, priority 2023, published 2026).
# Starred links: 1 amine or outer side, 2 acyl side, 3 side chain; linkers in the order of their positions; H or OH if unused. Non-standard residues stand in square brackets, D forms with d. Residues, ends and D or L forms follow the SMILES beside them. dPro(4R-(4-pyridylmethyl)) = O=C(O)[C@H]1C[C@@H](Cc2ccncc2)CN1; Ala(piperidin-4-yl) = O=C([C@H](CC1CCN([*:3])CC1)N[*:1])[*:2]; Trp(βS-Me,4-F) = C[C@@H](c1c[nH]c2cccc(F)c12)[C@H](N)C(=O)O; Bip(4'-COOH) = N[C@@H](Cc1ccc(-c2ccc(C(=O)O)cc2)cc1)C(=O)O; Ala(1-bicyclo(1.1.1)pentyl) = N[C@@H](CC12CC(C1)C2)C(=O)O; dPro(4R-Bzl(4-F)) = O=C(O)[C@H]1C[C@@H](Cc2ccc(F)cc2)CN1; Ala(morpholin-4-yl) = N[C@@H](CN1CCOCC1)C(=O)O; Ala(pyrimidin-5-yl) = N[C@@H](Cc1cncnc1)C(=O)O; Phe(4-COOH) = N[C@@H](Cc1ccc(C(=O)O)cc1)C(=O)O; Pro(cis-4-F) = O=C(O)[C@@H]1C[C@H](F)CN1; cisHyp = O=C(O)[C@@H]1C[C@H](O)CN1; d(αMeD) = C[C@@](N)(CC(=O)O)C(=O)O; 4Pal = N[C@@H](Cc1ccncc1)C(=O)O; Cba = N[C@@H](CC1CCC1)C(=O)O; αMeK = C[C@](N)(CCCCN)C(=O)O; Dab = NCC[C@H](N)C(=O)O; Aib = CC(C)(N)C(=O)O
# Target: T1, IL-1β (Homo sapiens, UniProt P01584)
# T1 construct: purchased BioLegend 579404
# T1 sequence (P01584 117-269): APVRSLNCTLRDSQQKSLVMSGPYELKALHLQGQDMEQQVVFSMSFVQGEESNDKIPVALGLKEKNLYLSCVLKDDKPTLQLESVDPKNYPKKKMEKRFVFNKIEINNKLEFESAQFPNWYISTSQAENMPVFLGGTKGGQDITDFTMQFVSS
# Test: IL-6 assay in MRC5 cells: inhibition of IL-1β induced IL-6 secretion (AlphaLISA)
# Type: cell-based
# Details: inhibition of IL-1β induced IL-6 secretion in MRC5 cells; read-out: MRC5 IC50
# Summary of the method: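 Compound was pre-incubated 1 h at ambient temperature with recombinant human IL-1β at 2λ EC80 before adding human lung fibroblast MRC5 cells (3000/well) in EMEM with 0.025% BSA. After overnight culture at 37 °C, 5% CO2, secreted IL-6 in conditioned medium was measured by AlphaLISA; IC50 from 4-parameter logistic fits.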
row,IC50 [pM],SMILES
1,11,"C[C@@H](c1c[nH]c2cccc(F)c12)[C@@H]1NC(=O)[C@@H]2C[C@H](F)CN2C(=O)CNC(=O)[C@H](Cc2ccc(C(=O)O)cc2)NC(=O)[C@H](CC23CC(C2)C3)NC(=O)[C@H](Cc2ccc(-c3ccc(C(=O)O)cc3)cc2)NC(=O)[C@H]2C[C@@H](Cc3ccncc3)CN2C(=O)CNC(=O)[C@H](CCN)NC(=O)[C@H](CCC(N)=O)NC(=O)[C@H](Cc2cncnc2)NC(=O)[C@@](C)(CC(=O)O)NC(=O)[C@H](Cc2c[nH]c3ccccc23)NC(=O)[C@H](CO)NC(=O)C(C)(C)NC1=O [Example 155] (cyclo([Bip(4'-COOH)][Ala(1-bicyclo(1.1.1)pentyl)][Phe(4-COOH)]G[Pro(cis-4-F)][Trp(βS-Me,4-F)][Aib]SW[d(αMeD)][Ala(pyrimidin-5-yl)]Q[Dab]G[dPro(4R-(4-pyridylmethyl))]))"
2,15,"C[C@@H](c1c[nH]c2cccc(F)c12)[C@@H]1NC(=O)[C@@H]2C[C@H](F)CN2C(=O)CNC(=O)[C@H](Cc2ccc(C(=O)O)cc2)NC(=O)[C@H](Cc2ccncc2)NC(=O)[C@H](Cc2ccc(-c3ccc(C(=O)O)cc3)cc2)NC(=O)[C@H]2C[C@@H](Cc3ccncc3)CN2C(=O)CNC(=O)[C@H](CO)NC(=O)[C@H](CCC(N)=O)NC(=O)[C@H](Cc2cncnc2)NC(=O)[C@@](C)(CC(=O)O)NC(=O)[C@H](Cc2c[nH]c3ccccc23)NC(=O)[C@H](CO)NC(=O)C(C)(C)NC1=O [Example 156] (cyclo([Bip(4'-COOH)][4Pal][Phe(4-COOH)]G[Pro(cis-4-F)][Trp(βS-Me,4-F)][Aib]SW[d(αMeD)][Ala(pyrimidin-5-yl)]QSG[dPro(4R-(4-pyridylmethyl))]))"
3,38,"C[C@@H](c1c[nH]c2cccc(F)c12)[C@@H]1NC(=O)[C@@H]2C[C@H](O)CN2C(=O)CNC(=O)[C@H](Cc2ccc(C(=O)O)cc2)NC(=O)[C@H](CC23CC(C2)C3)NC(=O)[C@H](Cc2ccc(-c3ccc(C(=O)O)cc3)cc2)NC(=O)[C@H]2C[C@@H](Cc3ccncc3)CN2C(=O)CNC(=O)[C@H](CO)NC(=O)[C@H](CCC(N)=O)NC(=O)[C@H](Cc2cncnc2)NC(=O)[C@@](C)(CC(=O)O)NC(=O)[C@H](Cc2c[nH]c3ccccc23)NC(=O)[C@H](CO)NC(=O)C(C)(C)NC1=O [Example 157] (cyclo([Bip(4'-COOH)][Ala(1-bicyclo(1.1.1)pentyl)][Phe(4-COOH)]G[cisHyp][Trp(βS-Me,4-F)][Aib]SW[d(αMeD)][Ala(pyrimidin-5-yl)]QSG[dPro(4R-(4-pyridylmethyl))]))"
4,13,"C[C@@H](c1c[nH]c2cccc(F)c12)[C@@H]1NC(=O)[C@@H]2C[C@H](F)CN2C(=O)CNC(=O)[C@H](Cc2ccc(C(=O)O)cc2)NC(=O)[C@H](CC23CC(C2)C3)NC(=O)[C@H](Cc2ccc(-c3ccc(C(=O)O)cc3)cc2)NC(=O)[C@H]2C[C@@H](Cc3ccncc3)CN2C(=O)CNC(=O)[C@H](CO)NC(=O)[C@H](CCC(N)=O)NC(=O)[C@H](Cc2cncnc2)NC(=O)[C@@](C)(CC(=O)O)NC(=O)[C@H](Cc2c[nH]c3ccccc23)NC(=O)[C@H](CO)NC(=O)C(C)(C)NC1=O [Example 158] (cyclo([Bip(4'-COOH)][Ala(1-bicyclo(1.1.1)pentyl)][Phe(4-COOH)]G[Pro(cis-4-F)][Trp(βS-Me,4-F)][Aib]SW[d(αMeD)][Ala(pyrimidin-5-yl)]QSG[dPro(4R-(4-pyridylmethyl))]))"
5,13,"C[C@@H](c1c[nH]c2cccc(F)c12)[C@@H]1NC(=O)[C@@H]2C[C@H](O)CN2C(=O)CNC(=O)[C@H](Cc2ccc(C(=O)O)cc2)NC(=O)[C@H](Cc2ccncc2)NC(=O)[C@H](Cc2ccc(-c3ccc(C(=O)O)cc3)cc2)NC(=O)[C@H]2C[C@@H](Cc3ccncc3)CN2C(=O)CNC(=O)[C@H](CCN)NC(=O)[C@H](CCC(N)=O)NC(=O)[C@H](Cc2cncnc2)NC(=O)[C@@](C)(CC(=O)O)NC(=O)[C@H](Cc2c[nH]c3ccccc23)NC(=O)[C@H](CO)NC(=O)C(C)(C)NC1=O [Example 159] (cyclo([Bip(4'-COOH)][4Pal][Phe(4-COOH)]G[cisHyp][Trp(βS-Me,4-F)][Aib]SW[d(αMeD)][Ala(pyrimidin-5-yl)]Q[Dab]G[dPro(4R-(4-pyridylmethyl))]))"
6,19,"C[C@@H](c1c[nH]c2cccc(F)c12)[C@@H]1NC(=O)[C@@H]2C[C@H](O)CN2C(=O)CNC(=O)[C@H](Cc2ccc(C(=O)O)cc2)NC(=O)[C@H](Cc2ccncc2)NC(=O)[C@H](Cc2ccc(-c3ccc(C(=O)O)cc3)cc2)NC(=O)[C@H]2C[C@@H](Cc3ccncc3)CN2C(=O)CNC(=O)[C@H](CO)NC(=O)[C@H](CCC(N)=O)NC(=O)[C@H](Cc2cncnc2)NC(=O)[C@@](C)(CC(=O)O)NC(=O)[C@H](Cc2c[nH]c3ccccc23)NC(=O)[C@H](CO)NC(=O)C(C)(C)NC1=O [Example 161] (cyclo([Bip(4'-COOH)][4Pal][Phe(4-COOH)]G[cisHyp][Trp(βS-Me,4-F)][Aib]SW[d(αMeD)][Ala(pyrimidin-5-yl)]QSG[dPro(4R-(4-pyridylmethyl))]))"

# Second part, the molecule before the results:
row,SMILES,IC50 [pM]
1,"C[C@@H](c1c[nH]c2cccc(F)c12)[C@@H]1NC(=O)[C@@H]2C[C@H](O)CN2C(=O)CNC(=O)[C@H](Cc2ccc(C(=O)O)cc2)NC(=O)[C@H](CC23CC(C2)C3)NC(=O)[C@H](Cc2ccc(-c3ccc(C(=O)O)cc3)cc2)NC(=O)[C@H]2C[C@@H](Cc3ccncc3)CN2C(=O)CNC(=O)[C@H](CCN)NC(=O)[C@H](CCC(N)=O)NC(=O)[C@H](Cc2cncnc2)NC(=O)[C@@](C)(CC(=O)O)NC(=O)[C@H](Cc2c[nH]c3ccccc23)NC(=O)[C@H](CO)NC(=O)C(C)(C)NC1=O [Example 160] (cyclo([Bip(4'-COOH)][Ala(1-bicyclo(1.1.1)pentyl)][Phe(4-COOH)]G[cisHyp][Trp(βS-Me,4-F)][Aib]SW[d(αMeD)][Ala(pyrimidin-5-yl)]Q[Dab]G[dPro(4R-(4-pyridylmethyl))]))",23
2,"C[C@@H](c1c[nH]c2cccc(F)c12)[C@@H]1NC(=O)[C@@H]2C[C@H](F)CN2C(=O)CNC(=O)[C@H](Cc2ccc(C(=O)O)cc2)NC(=O)[C@H](CC2CCC2)NC(=O)[C@H](Cc2ccc(-c3ccc(C(=O)O)cc3)cc2)NC(=O)[C@H]2C[C@@H](Cc3ccncc3)CN2C(=O)CNC(=O)[C@H](CCN)NC(=O)[C@H](CCC(N)=O)NC(=O)[C@H](Cc2cncnc2)NC(=O)C(C)(C)NC(=O)[C@H](Cc2c[nH]c3ccccc23)NC(=O)[C@H](CO)NC(=O)C(C)(C)NC1=O [Example 163] (cyclo([Bip(4'-COOH)][Cba][Phe(4-COOH)]G[Pro(cis-4-F)][Trp(βS-Me,4-F)][Aib]SW[Aib][Ala(pyrimidin-5-yl)]Q[Dab]G[dPro(4R-(4-pyridylmethyl))]))",30
3,"C[C@@H](c1c[nH]c2cccc(F)c12)[C@@H]1NC(=O)[C@@H]2C[C@H](O)CN2C(=O)CNC(=O)[C@H](Cc2ccc(C(=O)O)cc2)NC(=O)[C@H](CC2CCC2)NC(=O)[C@H](Cc2ccc(-c3ccc(C(=O)O)cc3)cc2)NC(=O)[C@H]2C[C@@H](Cc3ccncc3)CN2C(=O)CNC(=O)[C@H](CCN)NC(=O)[C@H](CCC(N)=O)NC(=O)[C@H](Cc2cncnc2)NC(=O)[C@@](C)(CC(=O)O)NC(=O)[C@H](Cc2c[nH]c3ccccc23)NC(=O)[C@H](CO)NC(=O)C(C)(C)NC1=O [Example 164] (cyclo([Bip(4'-COOH)][Cba][Phe(4-COOH)]G[cisHyp][Trp(βS-Me,4-F)][Aib]SW[d(αMeD)][Ala(pyrimidin-5-yl)]Q[Dab]G[dPro(4R-(4-pyridylmethyl))]))",39
4,"C[C@@H](c1c[nH]c2cccc(F)c12)[C@@H]1NC(=O)[C@@H]2C[C@H](F)CN2C(=O)CNC(=O)[C@H](Cc2ccc(C(=O)O)cc2)NC(=O)[C@H](CC23CC(C2)C3)NC(=O)[C@H](Cc2ccc(-c3ccc(C(=O)O)cc3)cc2)NC(=O)[C@H]2C[C@@H](Cc3ccc(F)cc3)CN2C(=O)CNC(=O)[C@H](CCN)NC(=O)[C@H](CCC(N)=O)NC(=O)[C@H](CN2CCOCC2)NC(=O)[C@](C)(CCCCN)NC(=O)[C@H](Cc2c[nH]c3ccccc23)NC(=O)[C@H](CCC(=O)O)NC(=O)C(C)(C)NC1=O [Example 165] (cyclo([Bip(4'-COOH)][Ala(1-bicyclo(1.1.1)pentyl)][Phe(4-COOH)]G[Pro(cis-4-F)][Trp(βS-Me,4-F)][Aib]EW[αMeK][Ala(morpholin-4-yl)]Q[Dab]G[dPro(4R-Bzl(4-F))]))",22
5,"C[C@@H](c1c[nH]c2cccc(F)c12)[C@@H]1NC(=O)[C@@H]2C[C@H](F)CN2C(=O)CNC(=O)[C@H](Cc2ccc(C(=O)O)cc2)NC(=O)[C@H](CC23CC(C2)C3)NC(=O)[C@H](Cc2ccc(-c3ccc(C(=O)O)cc3)cc2)NC(=O)[C@H]2C[C@@H](Cc3ccc(F)cc3)CN2C(=O)CNC(=O)[C@H](CCN)NC(=O)[C@H](CCC(N)=O)NC(=O)[C@H](CC2CCNCC2)NC(=O)[C@](C)(CCCCN)NC(=O)[C@H](Cc2c[nH]c3ccccc23)NC(=O)[C@H](CCC(=O)O)NC(=O)C(C)(C)NC1=O [Example 166] (cyclo([Bip(4'-COOH)][Ala(1-bicyclo(1.1.1)pentyl)][Phe(4-COOH)]G[Pro(cis-4-F)][Trp(βS-Me,4-F)][Aib]EW[αMeK][Ala(piperidin-4-yl)]Q[Dab]G[dPro(4R-Bzl(4-F))]))",39
6,"C[C@@H](c1c[nH]c2cccc(F)c12)[C@@H]1NC(=O)[C@@H]2C[C@H](F)CN2C(=O)CNC(=O)[C@H](Cc2ccc(C(=O)O)cc2)NC(=O)[C@H](CC23CC(C2)C3)NC(=O)[C@H](Cc2ccc(-c3ccc(C(=O)O)cc3)cc2)NC(=O)[C@H]2C[C@@H](Cc3ccc(F)cc3)CN2C(=O)CNC(=O)[C@H](CCN)NC(=O)[C@H](CCC(N)=O)NC(=O)[C@H](CN2CCOCC2)NC(=O)C(C)(C)NC(=O)[C@H](Cc2c[nH]c3ccccc23)NC(=O)[C@H](CO)NC(=O)C(C)(C)NC1=O [Example 167] (cyclo([Bip(4'-COOH)][Ala(1-bicyclo(1.1.1)pentyl)][Phe(4-COOH)]G[Pro(cis-4-F)][Trp(βS-Me,4-F)][Aib]SW[Aib][Ala(morpholin-4-yl)]Q[Dab]G[dPro(4R-Bzl(4-F))]))",13
